In experiment [1] the target is T1, E. coli FrdA subunit (Escherichia coli, UniProt P00363).
T1 construct: made in house; host or cells: E. coli RP-2 (RP437ΔfrdΔsdh)
Nature of the experiment: biochemical. Type of experiment: binding. The procedure: (§1) To interrogate dicarboxylate orientation in solution, we focused on oxaloacetate. When oxaloacetate is correctly oriented in the active site, it induces a characteristic spectrum (charge transfer band) attributed to π–π interactions between the oxygen of oxaloacetate and the isoalloxazine ring of FAD.
(§2) Studies were performed using a HP8453 UV/Vis spectrophotometer (Agilent, Santa Clara, CA). Binding experiments were carried out in 50 mM Bis-Tris-Propane (pH 8.0) at 25 °C. The isolated flavoproteins were added to a cuvette and titrated by the sequential addition of ligand solutions. The wavelength giving the highest amplitude change for each ligand was selected from the difference spectra for the analysis. The dissociation constant (Kd) values were obtained by the analysis of the changes in absorbance vs total ligand concentration. The Kd was determined according Eq. 1:1 ΔA=ΔAmaxET+LT+Kd-ET+LT+Kd^2-4ETLT/2ET where ET is a total protein concentration, LT is a total ligand concentration, ΔA and ΔAmax are the absorbance changes at a given and saturation ligand concentration. The protein concentration used for FrdA, SdhA, and quinol:fumarate reductase (QFR) were in a range of 7 to 9 µM. […]

The target in experiment [2] is E. coli SdhA subunit (Escherichia coli, UniProt P0AC41). Nature of the experiment: Optical difference spectroscopy, ligand binding to isolated SdhA subunit. The settings on record: read-out: Kd^malonate. The procedure: as §1, §2
Experiment [3] deals with T2, FrdA+SdhE (Escherichia coli, UniProt P00363).
T2 construct: made in house; host or cells: FrdA: E. coli RP-2; SdhE for this assay: not described
Nature of the experiment: Optical difference spectroscopy, dicarboxylate binding to FrdA in the presence of SdhE. The procedure:
(§3) If this mechanistic proposal for covalent flavinylation is correct, we would anticipate that the FrdA-SdhE assembly intermediate would bind with reasonable affinity to biologically relevant dicarboxylates. […] Thus, the shifted architecture of SdhE-bound FrdA maintains dicarboxylate binding, supporting our mechanism.
(§4) Studies were performed using a HP8453 UV/Vis spectrophotometer (Agilent, Santa Clara, CA). […] The isolated flavoproteins were added to a cuvette and titrated by the sequential addition of ligand solutions. The wavelength giving the highest amplitude change for each ligand was selected from the difference spectra for the analysis. The dissociation constant (Kd) values were obtained by the analysis of the changes in absorbance vs total ligand concentration. The Kd was determined according Eq. 1:1 ΔA=ΔAmaxET+LT+Kd-ET+LT+Kd^2-4ETLT/2ET where ET is a total protein concentration, LT is a total ligand concentration, ΔA and ΔAmax are the absorbance changes at a given and saturation ligand concentration. The protein concentration used for FrdA, SdhA, and quinol:fumarate reductase (QFR) were in a range of 7 to 9 µM. […] The concentration of the isolated flavoprotein was determined in 0.5% SDS using the FAD extinction coefficient ε^445 = […].

Experiment [4] addresses SdhA+SdhE (Escherichia coli, UniProt P0AC41). Nature of the experiment: Optical difference spectroscopy, dicarboxylate binding to SdhA in the presence of SdhE. The settings on record: read-out: Kd^malonate. The procedure:
as §3, §4

The target in experiment [5] is T3, Escherichia coli quinol:fumarate reductase flavoprotein subunit FrdA (isolated subunit) (E. coli, UniProt P00363 1-602, covalent FAD on H44 (8α-N(3)-histidyl linkage)).
T3 sequence (looked up): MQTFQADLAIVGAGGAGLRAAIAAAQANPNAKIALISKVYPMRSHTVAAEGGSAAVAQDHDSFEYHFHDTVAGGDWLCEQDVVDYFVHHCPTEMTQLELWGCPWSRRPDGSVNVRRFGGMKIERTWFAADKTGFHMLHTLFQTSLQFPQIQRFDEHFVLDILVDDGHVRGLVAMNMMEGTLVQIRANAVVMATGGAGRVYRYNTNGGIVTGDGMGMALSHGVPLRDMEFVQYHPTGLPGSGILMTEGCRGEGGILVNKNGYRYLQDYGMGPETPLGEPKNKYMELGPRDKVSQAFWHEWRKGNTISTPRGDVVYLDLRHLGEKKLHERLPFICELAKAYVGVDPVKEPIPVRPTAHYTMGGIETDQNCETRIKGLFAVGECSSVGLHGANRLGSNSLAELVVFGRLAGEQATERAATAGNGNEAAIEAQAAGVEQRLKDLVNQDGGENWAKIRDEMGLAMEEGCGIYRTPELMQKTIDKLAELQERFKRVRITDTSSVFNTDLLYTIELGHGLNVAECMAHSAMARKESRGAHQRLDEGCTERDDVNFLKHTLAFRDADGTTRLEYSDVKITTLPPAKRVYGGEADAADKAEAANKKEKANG
Nature of the experiment: cell-based or functional assay.

Experiment [6] concerns the target T4, Escherichia coli succinate:quinone oxidoreductase flavoprotein subunit SdhA (isolated subunit) (E. coli, UniProt P0AC41 1-588).
T4 sequence (looked up): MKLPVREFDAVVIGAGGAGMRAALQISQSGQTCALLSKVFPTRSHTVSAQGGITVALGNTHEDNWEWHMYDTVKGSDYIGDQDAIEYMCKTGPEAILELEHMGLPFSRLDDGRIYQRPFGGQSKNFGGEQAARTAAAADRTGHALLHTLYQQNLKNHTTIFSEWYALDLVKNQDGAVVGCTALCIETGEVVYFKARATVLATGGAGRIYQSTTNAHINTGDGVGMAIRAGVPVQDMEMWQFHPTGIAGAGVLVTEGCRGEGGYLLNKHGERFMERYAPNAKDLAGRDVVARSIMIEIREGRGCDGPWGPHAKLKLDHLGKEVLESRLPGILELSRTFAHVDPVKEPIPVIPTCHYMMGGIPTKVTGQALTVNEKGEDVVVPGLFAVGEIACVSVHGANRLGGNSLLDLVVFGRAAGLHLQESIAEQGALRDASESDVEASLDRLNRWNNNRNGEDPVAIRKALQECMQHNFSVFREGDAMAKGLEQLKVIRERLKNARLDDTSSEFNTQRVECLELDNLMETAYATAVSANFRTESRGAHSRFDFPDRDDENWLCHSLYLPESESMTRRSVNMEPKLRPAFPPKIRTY
Nature of the experiment: cell-based or functional assay.

The target in experiment [7] is T3, Escherichia coli quinol:fumarate …. Nature of the experiment: optical difference spectroscopy (FAD absorbance titration); isolated flavoprotein (7 to 9 µM) in the cuvette titrated with SdhE; 50 mM Bis-Tris-Propane pH 8.0, 25 °C; 387–458 nm; fit of absorbance change against total ligand concentration. The settings on record: both partners purified.

A word on the Kd: it is the free concentration of one partner at which half of the binding sites on the other are occupied at equilibrium, for simple one-to-one binding.

Take `O=C(O)CC(=O)O` [malonate]: the Kd is 26 ± 3 µM in experiment [1], 11 ± 1 µM in experiment [2], 180 ± 20 µM in experiment [3] (read-out: Kd^malonate) and 60 ± 5 µM in experiment [4]. Moreover, the “increase of Kd^malonate in the presence of SdhE” value in experiment [3] (presence vs absence of SdhE, stated for both FrdA and SdhA subunits) is reported as 5- to 7 fold.

B1: Escherichia coli SdhE assembly factor (natural protein, E. coli)
chain: MDINNKARIHWACRRGMRELDISIMPFFEHEYDSLSDDEKRIFIRLLECDDPDLFNWLMNHGKPADAELEMMVRLIQTRNRERGPVAI
notes: SdhE, FAD assembly factor of E. coli Complex II, as used in optical titrations and kinetics; construct not described
Turning to B1, the “inhibition by SdhE of the succinate:DCIP reductase reaction of isolated FrdA (0.45 µM), pH 8.0, 30 °C; IC50^SdhE” value in experiment [5] stood at 1.2 µM. Moreover, the “inhibition by SdhE of the succinate:DCIP reductase reaction of isolated SdhA, pH 8.0, 30 °C; IC50^SdhE” value in experiment [6] is 1.5 µM. In experiment [7], this molecule showed a dissociation constant (Kd) of 0.7 ± 0.1 µM.

Source of the values: article PMC5773532, “Crystal structure of an assembly intermediate of respiratory Complex II” (Nature Communications, 2018).
